Results reported in article PMC11277476, “Synthesis and Biological Evaluation of Novel 2-Aroyl Benzofuran-Based Hydroxamic Acids as Antimicrotubule Agents” (International Journal of Molecular Sciences, 2024).
Where two headings read alike, the source gives them in different places.

Key:
HeLa cells = experiment: In vitro growth inhibition (resazurin, 72 h), HeLa; format: cell-based; conditions: Homo sapiens, concentration inhibiting tumor cell proliferation by 50%, mean ± SE
MDA-MB-231 cells = experiment: In vitro growth inhibition (resazurin, 72 h), MDA-MB-231; format: cell-based; conditions: Homo sapiens, mean ± SE
A549 cells = experiment: In vitro growth inhibition (resazurin, 72 h), A549; format: cell-based; conditions: Homo sapiens, mean ± SE
HT-29 cells [1] = experiment: In vitro growth inhibition (resazurin, 72 h), HT-29; format: cell-based; conditions: Homo sapiens, mean ± SE
MCF-7 cells = experiment: In vitro growth inhibition (resazurin, 72 h), MCF-7; format: cell-based; conditions: Homo sapiens, MCF7, mean ± SE
bovine brain tubulin = experiment: Inhibition of tubulin polymerization (turbidimetric); format: biochemical; conditions: tubulin at 10 μM; 20 min incubation at 30 °C; read-out: Tubulin Assembly IC50 ± SD
Procedure: (§1) Bovine brain tubulin was purified as described previously. To evaluate the effects of the compounds on tubulin assembly in vitro [77], varying concentrations were preincubated with 10 μM tubulin in 0.8 M monosodium glutamate (pH 6.6) at 30 °C, and the reaction mixtures were then cooled to 0 °C. After addition of GTP, the mixtures were transferred to 0 °C cuvettes in Beckman Coulter (Brea, CA, USA) DU-7400/DU-7500 recording spectrophotometers equipped with electronic temperature controllers and were warmed to 30 °C, and the assembly of tubulin was observed turbidimetrically. […] Inhibition of colchicine binding to tubulin was measured as described before, except that the reaction mixtures contained 0.5 μM tubulin and 5 μM each of [^3H]colchicine and test compound. Only one DEAE-cellulose filter was used per sample, and filtration was via gravity.

[2] = tested on: tubulin (colchicine site); experiment: Inhibition of [3H]colchicine binding to tubulin; parameters: species or system bovine; conditions: tubulin 0.5 µM, [3H]colchicine 5 µM, tested compound 5 µM
Procedure: as §1

human recombinant HDAC6 = molecular target: T1, human recombinant HDAC6 (Homo sapiens, UniProt Q9UBN7); experiment: HDAC isoform inhibition, fluorogenic substrate, HDAC6; format: biochemical; conditions: mean ± SE; for IC50: read-out: IC50 (µM) hHDAC6
T1 construct: purchased BPS Bioscience 50056
T1 sequence (Q9UBN7 1-1215): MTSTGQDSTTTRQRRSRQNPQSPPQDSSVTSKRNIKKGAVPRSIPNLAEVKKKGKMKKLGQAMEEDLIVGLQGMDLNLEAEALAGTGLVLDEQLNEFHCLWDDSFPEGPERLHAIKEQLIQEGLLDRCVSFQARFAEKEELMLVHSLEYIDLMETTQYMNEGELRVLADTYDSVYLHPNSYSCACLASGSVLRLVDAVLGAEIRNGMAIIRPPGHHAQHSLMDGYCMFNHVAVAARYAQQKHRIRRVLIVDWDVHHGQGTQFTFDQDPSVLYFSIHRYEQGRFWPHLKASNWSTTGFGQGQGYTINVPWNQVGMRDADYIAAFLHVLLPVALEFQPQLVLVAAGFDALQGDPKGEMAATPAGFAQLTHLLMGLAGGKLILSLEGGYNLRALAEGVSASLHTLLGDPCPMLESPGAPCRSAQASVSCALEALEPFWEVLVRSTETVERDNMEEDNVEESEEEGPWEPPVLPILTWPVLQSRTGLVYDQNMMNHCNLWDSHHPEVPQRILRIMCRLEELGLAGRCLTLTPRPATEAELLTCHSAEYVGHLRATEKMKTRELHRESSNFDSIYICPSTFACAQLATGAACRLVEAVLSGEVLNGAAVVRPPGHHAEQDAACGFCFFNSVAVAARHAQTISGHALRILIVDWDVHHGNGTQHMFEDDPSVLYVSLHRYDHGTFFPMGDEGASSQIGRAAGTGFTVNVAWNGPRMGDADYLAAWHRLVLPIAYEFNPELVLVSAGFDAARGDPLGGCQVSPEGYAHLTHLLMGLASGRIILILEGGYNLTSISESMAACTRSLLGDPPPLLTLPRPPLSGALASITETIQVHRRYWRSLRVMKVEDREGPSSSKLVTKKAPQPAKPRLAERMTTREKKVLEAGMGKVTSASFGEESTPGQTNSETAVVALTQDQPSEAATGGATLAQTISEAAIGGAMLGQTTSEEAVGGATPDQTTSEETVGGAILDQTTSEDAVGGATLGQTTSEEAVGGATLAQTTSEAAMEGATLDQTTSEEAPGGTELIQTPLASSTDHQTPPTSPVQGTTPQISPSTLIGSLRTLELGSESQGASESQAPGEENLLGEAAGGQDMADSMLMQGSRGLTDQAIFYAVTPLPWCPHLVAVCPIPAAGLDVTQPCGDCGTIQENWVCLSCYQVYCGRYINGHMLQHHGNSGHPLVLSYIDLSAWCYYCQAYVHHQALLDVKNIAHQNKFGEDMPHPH
Procedure: Further experiments were also carried out to evaluate the inhibitory activities of test compounds on selected HDAC isoforms. […] Following an incubation of 15 min at RT, fluorescence was measured in an EnSight multimodal plate reader (PerkinElmer, Boston, MA, USA) with an excitation wavelength of 360 nm and an emission wavelength of 450 nm.

[3] = tested on: panel of five human cancer cell lines (HeLa, MDA-MB-231, A549, HT-29, MCF-7); experiment: In vitro growth inhibition, range over the panel of five cancer cell lines
Procedure: All the cell lines were purchased from the American Type Culture Collection (ATCC, Manassas, VA, USA). Drug stock solutions were prepared for each compound by dissolving them in DMSO at 10 mM.
Cancer cells were seeded in tissue treated, flat bottom, 384-well plates (Corning, Corning, NY, USA) according to their optimal density, in 27 μL of complete medium per well, using a Microlab STAR 96-CORE liquid handling system (Hamilton Bonaduz, Bonaduz, Switzerland) as described previously [75]. Each compound was tested in a 6-points 2-fold dose–response curve, and each dose was tested in duplicate within each plate, in three independent experiments. The final concentration of DMSO in the wells never exceeded 0.1%, which was the maximum concentration.
Only plates with acceptable Z-prime quality metrics (Z′ > 0.6) were further analyzed for the drug screening. Raw data were normalized according to the following equation: cell viability (%) = (x − POS)/(NEG − POS) × 100, where x is the relative fluorescence units (RFU) collected from each single well, NEG is the mean of intraplate negative controls (DMSO, corresponding to 100% cell viability), and POS is the mean of intraplate positive controls (Bortezomib 1 μΜ, equal to 0% cell viability).

HT-29 cells [4] = experiment: Cell cycle analysis (PI, flow cytometry); format: cell-based, human; conditions: 250 nM for 24 h (figure legend)
Procedure: HT29 cells were treated with the indicated compounds for 24 h and then harvested and fixed in 70% ice-cold ethanol for 24 h. The cells were next treated with a 0.1% v/v solution of Triton X-100 in phosphate buffered saline (PBS) containing 10 μg/mL RNAse A and 20 μg/mL PI. The cells were incubated at room temperature for 30 min and then analyzed on a BD FACS Celesta^TM Flow Cytometer (BD Bioscience, Franklin Lakes, NJ, USA) in the FL3 channel. DNA histograms were analyzed using FlowJo_v10.7.1 software (BD Bioscience, Franklin Lakes, NJ, USA).

HT-29 cells [5] = experiment: Annexin V-PI flow cytometric analysis of apoptosis, HT-29; format: cell-based, human; conditions: 96 h
Procedure: The quantification of apoptosis induced by the test compounds was carried out with flow cytometric analysis using the Annexin-V Fluos kit (Roche Diagnostics, Milan, Italy) following the manufacturer’s instructions. Cancer cells treated with the test compounds for the indicated time points and concentrations were then labeled with annexin V/FITC and PI and analyzed with BD FACS Celesta^TM Flow Cytometer (BD Bioscience, Franklin Lakes, NJ, USA) using the FL1 and FL3 channel, respectively, and FlowJo_v10.7.1 software.

[6] = read-out: IC50 values, range or bound over the cancer cell line panel

| Structure (SMILES) | IC50 (HeLa cells) [nM] | IC50 (MDA-MB-231 cells) [nM] | IC50 (A549 cells) [nM] | IC50 (HT-29 cells [1]) [nM] | IC50 (MCF-7 cells) [nM] | IC50 (bovine brain tubulin) [nM] | Colchicine Binding % Inhibition ± SD [2] [%] | IC50 (µM) hHDAC6 (human recombinant HDAC6) | IC50 (human recombinant HDAC6) [µM] | melting point [°C] | IC50 [3, 6] [nM] | Percentage of HT-29 cells in G1 phase (HT-29 cells [4]) [%] | Percentage of HT-29 cells in G2/M phase (HT-29 cells [4]) [%] | Percentage of HT-29 cells in S phase (HT-29 cells [4]) [%] | induction of apoptosis / cell death (annexin V/PI), in words (HT-29 cells [5]) | IC50 ([3]; read-out: IC50 values, range over the cancer cell line panel) [nM] |
| --- | --- | --- | --- | --- | --- | --- | --- | --- | --- | --- | --- | --- | --- | --- | --- | --- |
| COc1cccc(C(=O)c2oc3cc(OC)c(C#CC(=O)NO)cc3c2C)c1 [Compound 11e, N-Hydroxy-3-[6-methoxy-2-(3-methoxybenzoyl)-3-methyl-1-benzofuran-5-yl]prop-2-ynamide] | 8.4 ± 0.98 | 96.7 ± 1.65 | 94.4 ± 3.03 | 4.89 ± 0.03 | 15 | 420 ± 30 | 81 ± 3 | does not show any activity at the highest concentration tested | > 30 | – | – | – | – | – | – | – |
| COc1ccc(C(=O)c2oc3cc(OC)c(C#CC(=O)NO)cc3c2C)cc1 [Compound 11d, N-Hydroxy-3-[6-methoxy-2-(4-methoxybenzoyl)-3-methyl-1-benzofuran-5-yl]prop-2-ynamide] | 1.43 ± 0.67 | 4.09 ± 0.06 | 5.07 ± 0.22 | > 10000 | – | – | – | – | – | 222 to 224 | 1500 to 10000 | – | – | – | – | – |
| COc1cc(OC)cc(C(=O)c2oc3cc(OC)c(C#CC(=O)NO)cc3c2C)c1 [Compound 11c, 3-[2-(3,5-Dimethoxybenzoyl)-6-methoxy-3-methyl-1-benzofuran-5-yl]-N-hydroxyprop-2-ynamide] | 7.3 ± 0.03 | 43.9 ± 3 | 45.3 ± 2.93 | 96.5 ± 2.45 | 20 ± 0.7 | 560 ± 60 | 82 ± 1 | – | 13.8 ± 0.8 | 248 to 250 | – | – | – | – | – | – |
| CC(/C=C/C(=O)NO)=C\[C@@H](C)C(=O)c1ccc(N(C)C)cc1 [TSA, Trichostatin, reference compound] | – | – | – | – | – | – | – | – | – | – | – | 43.90 | 38.65 | 17.44 | sensitive only to the higher dose | – |
| C#Cc1cc2c(C)c(C(=O)c3cc(OC)c(OC)c(OC)c3)oc2cc1OC [Compound 8, (5-ethynyl-6-methoxy-3-methyl-benzofuran-2-yl)-(3,4,5-trimethoxyphenyl)methanone] | 18.2 ± 0.02 | 81.2 ± 6 | 122 ± 8.6 | 207 ± 14 | – | – | – | – | – | 186 to 188 | – | – | – | – | – | 18 to 207 |
| COc1cc(C(=O)c2oc3ccc(C#CC(=O)NO)cc3c2C)cc(OC)c1OC [Compound 11h, 3-[3-Methyl-2-(3,4,5-trimethoxybenzoyl)benzofuran-5-yl]prop-2-yne hydroxamic acid] | > 10000 | > 10000 | > 10000 | > 10000 | > 10000 | – | – | – | – | 254 to 256 | > 10000 | – | – | – | – | – |
| COc1ccc(C(=O)c2oc3cc(OC)c(/C=C/C(=O)NO)cc3c2C)cc1 [Compound 6d, (E)-N-Hydroxy-3-(6-methoxy-2-(4-methoxybenzoyl)-3-methylbenzofuran-5-yl)acrylamide] | 47.6 ± 1.22 | 322 ± 12.4 | 222 ± 1.09 | 881 ± 8.23 | 59 ± 10 | 1700 ± 100 | 27 ± 4 | – | 12.6 ± 0.8 | 168 to 170 | – | – | – | – | – | – |
| COc1cc2oc(C(=O)c3ccc(OC)c(OC)c3)c(C)c2cc1/C=C/C(=O)NO [Compound 6b, (E)-3-(2-(3,4-Dimethoxybenzoyl)-6-methoxy-3-methylbenzofuran-5-yl)-N-hydroxyacrylamide] | 36.8 ± 4.13 | 72.6 ± 5.03 | 187 ± 1.02 | 401 ± 2.03 | 40 ± 4 | 1100 ± 200 | 41 ± 5 | – | > 30 | 198 to 199 | – | – | – | – | – | – |
| COc1cc(C(=O)c2oc3ccc(/C=C/C(=O)NO)cc3c2C)cc(OC)c1OC [Compound 6h, (E)-N-Hydroxy-3-(3-methyl-2-(3,4,5-trimethoxybenzoyl)benzofuran-5-yl)acrylamide] | > 10000 | > 10000 | > 10000 | > 10000 | > 10000 | – | – | – | – | 188 to 190 | > 10000 | – | – | – | – | – |
